Laboratory results from patent publication US20230265151A1, “GIP/GLP1 CO-AGONIST COMPOUNDS” (priority 2020, published 2023).
Where two headings read alike, the source gives them in different places. *1 amine or outer side, *2 acyl side, *3 side chain or, on linkers, in order; H or OH if unused. Where a SMILES comes first, the peptide text is derived from it. Side-chain parts run from the residue outwards. [ ]: non-standard residue; d: D form. The star is where a group is joined. αMePhe(2-F) = C[C@](N)(Cc1ccccc1F)C(=O)O; γGlu = O=C(O)[C@H](CCC(=O)[*:2])N[*:1]; C14 diacid = O=C(O)CCCCCCCCCCCCC(=O)*; αMeY = C[C@](N)(Cc1ccc(O)cc1)C(=O)O; αMeL = CC(C)C[C@](C)(N)C(=O)O; Orn = NCCC[C@H](N)C(=O)O; AEEA = NCCOCCOCC(=O)O; Aib = CC(C)(N)C(=O)O

Assays:
Type in all cases: cell-based
[1] = target: T1, hGCGR (Homo sapiens, UniProt P47871); assay: Functional cAMP formation (HTRF) in HEK-293 clonal cells expressing hGCGR, 0.1% bovine casein, without or with 1.0% human serum albumin; settings: geometric mean
T1 construct: expressed in transfected cells
Procedure, shortened: (§1)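 Readings of the HTRF 665/620 nm ratio, which falls as cAMP rises, were converted to nM cAMP using a standard curve after 30 min peptide exposure at 37° C.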

[2] = target: T2, hGIPR (Homo sapiens, UniProt P48546); assay: Functional cAMP formation (HTRF) in HEK-293 clonal cells expressing hGIPR, 0.1% bovine casein, without or with 1.0% human serum albumin; settings: for EC50: geometric mean, read-out: hGIPR EC50, nM (SEM, n)
T2 construct: expressed in transfected cells
T2 sequence (P48546 22-466): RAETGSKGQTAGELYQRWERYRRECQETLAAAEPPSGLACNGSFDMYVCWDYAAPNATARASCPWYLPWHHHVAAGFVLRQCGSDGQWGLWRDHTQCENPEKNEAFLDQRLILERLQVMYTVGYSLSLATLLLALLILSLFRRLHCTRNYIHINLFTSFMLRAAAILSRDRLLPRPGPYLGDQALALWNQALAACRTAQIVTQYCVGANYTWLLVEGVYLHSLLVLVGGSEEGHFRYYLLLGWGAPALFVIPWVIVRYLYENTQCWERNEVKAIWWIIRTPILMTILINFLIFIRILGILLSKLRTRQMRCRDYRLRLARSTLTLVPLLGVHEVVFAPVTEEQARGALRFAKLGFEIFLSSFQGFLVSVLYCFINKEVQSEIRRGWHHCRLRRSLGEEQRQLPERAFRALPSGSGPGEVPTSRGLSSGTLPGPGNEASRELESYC
Procedure, shortened: as §1

[3] = target: hGLP-1R (Homo sapiens, UniProt P43220); assay: Functional cAMP formation (HTRF) in HEK-293 clonal cells expressing hGLP-1R, 0.1% bovine casein, without or with 1.0% human serum albumin; design: expressed in transfected cells; settings: for EC50: geometric mean, read-out: hGLP-1R EC50, nM (SEM, n)
Procedure, shortened: as §1

[4] = 0.1% bovine casein and 1.0% human serum albumin, 37° C., read-out: hGCGR EC50, nM (SEM, n)
[5] = cAMP, incubated at 37° C., 0.1% bovine casein (no human serum albumin), read-out: hGCGR EC50, nM (SEM, n)
[6] = 0.1% bovine casein and 1.0% human serum albumin, 37° C.
[7] = HEK293, 0.1% bovine casein and 1.0% human serum albumin, 37° C., percent of maximal response to GIP(1-42)NH2, read-out: hGIPR Emax, % ± SEM
[8] = HEK293, 0.1% bovine casein and 1.0% human serum albumin, 37° C., percent of maximal response to GLP-1(7-36)NH2, read-out: hGLP-1R Emax, % ± SEM
[9] = cAMP, incubated at 37° C., 0.1% bovine casein (no human serum albumin)

T1 sequence (P47871 26-477): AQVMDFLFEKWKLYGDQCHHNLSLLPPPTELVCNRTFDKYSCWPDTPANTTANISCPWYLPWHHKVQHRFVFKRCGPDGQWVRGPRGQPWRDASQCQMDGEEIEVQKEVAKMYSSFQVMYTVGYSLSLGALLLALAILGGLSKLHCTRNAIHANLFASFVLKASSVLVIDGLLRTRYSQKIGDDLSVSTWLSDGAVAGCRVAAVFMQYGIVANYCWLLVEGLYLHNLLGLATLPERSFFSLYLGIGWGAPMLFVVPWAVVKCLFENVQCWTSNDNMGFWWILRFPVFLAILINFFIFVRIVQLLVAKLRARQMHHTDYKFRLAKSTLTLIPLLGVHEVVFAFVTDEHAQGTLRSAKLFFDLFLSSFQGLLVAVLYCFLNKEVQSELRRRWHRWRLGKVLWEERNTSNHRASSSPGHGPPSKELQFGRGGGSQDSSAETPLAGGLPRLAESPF
Sequence of hGLP-1R (P43220 24-463): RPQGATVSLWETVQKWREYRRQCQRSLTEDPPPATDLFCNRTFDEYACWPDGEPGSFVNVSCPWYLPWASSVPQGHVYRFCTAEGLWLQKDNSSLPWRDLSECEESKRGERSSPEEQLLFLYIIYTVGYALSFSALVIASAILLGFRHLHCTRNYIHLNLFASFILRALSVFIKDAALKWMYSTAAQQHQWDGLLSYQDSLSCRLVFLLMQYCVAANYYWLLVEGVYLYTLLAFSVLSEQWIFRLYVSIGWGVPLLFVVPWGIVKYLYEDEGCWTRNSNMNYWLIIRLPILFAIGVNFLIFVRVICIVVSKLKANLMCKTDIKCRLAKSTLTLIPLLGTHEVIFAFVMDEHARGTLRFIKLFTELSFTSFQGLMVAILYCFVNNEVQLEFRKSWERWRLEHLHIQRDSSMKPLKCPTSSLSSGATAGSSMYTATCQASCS

Compound	EC50 ([1]; hGCGR EC50, nM (SEM, n), cAMP, incubated at 37° C., 0.1% bovine casein (no human serum albumin)) [nM]	Emax ([2]; HEK293, read-out: hGIPR Emax, % ± SEM, percent of maximal response to GIP(1-42)NH2, 37° C., 0.1% bovine casein, arithmetic mean) [%]	Emax ([3]; HEK293, read-out: hGLP-1R Emax, % ± SEM, percent of maximal response to GLP-1(7-36)NH2, 37° C., 0.1% bovine casein, arithmetic mean) [%]	EC50 [1, 4] [nM]	EC50 [1, 5] [nM]	EC50 [2, 6] [nM]	Emax [2, 7] [%]	EC50 [3, 6] [nM]	Emax [3, 8] [%]	Emax ([2]; HEK293, percent of maximal response to GIP(1-42)NH2, 37° C., 0.1% bovine casein, arithmetic mean, read-out: hGIPR Emax, % ± SEM) [%]	EC50 [2, 9] [nM]	Emax ([3]; HEK293, percent of maximal response to GLP-1(7-36)NH2, 37° C., 0.1% bovine casein, arithmetic mean, read-out: hGLP-1R Emax, % ± SEM) [%]	EC50 [3, 9] [nM]	EC50 ([1]; cAMP, 37° C., 0.1% bovine casein (no human serum albumin), read-out: hGCGR EC50, nM (SEM, n)) [nM]	Emax ([2]; HEK293, cAMP, 37° C., 0.1% bovine casein, percent of maximal response to GIP(1-42)NH2, arithmetic mean, read-out: hGIPR Emax, % ± SEM) [%]	Emax ([3]; HEK293, cAMP, 37° C., 0.1% bovine casein, percent of maximal response to GLP-1(7-36)NH2, arithmetic mean, read-out: hGLP-1R Emax, % ± SEM) [%]
CC[C@H](C)[C@H](NC(=O)[C@H](CC(C)C)NC(=O)[C@](C)(Cc1ccc(O)cc1)NC(=O)[C@H](CCCCNC(=O)[C@@H](N)CCCCNC(=O)[C@@H](N)CCCCNC(=O)CC[C@H](NC(=O)CCCCCCCCCCCCC(=O)O)C(=O)O)NC(=O)[C@@H](NC(=O)[C@H](Cc1ccccc1)NC(=O)[C@H](CCC(=O)O)NC(=O)C(C)(C)NC(=O)[C@H](CCC(N)=O)NC(=O)[C@H](C)NC(=O)[C@H](CCCCNC(=O)[C@@H](N)CCCCNC(=O)[C@@H](N)CCCCNC(=O)CC[C@H](NC(=O)CCCCCCCCCCCCC(=O)O)C(=O)O)NC(=O)[C@H](CCCN)NC(=O)[C@H](CC(=O)O)NC(=O)[C@H](CC(C)C)NC(=O)[C@](C)(CC(C)C)NC(=O)[C@@H](NC(=O)C(C)(C)NC(=O)[C@@H](NC(=O)[C@H](CC(=O)O)NC(=O)[C@H](CO)NC(=O)[C@@H](NC(=O)[C@](C)(Cc1ccccc1F)NC(=O)[C@@H](NC(=O)CNC(=O)[C@H](CCC(=O)O)NC(=O)C(C)(C)NC(=O)[C@@H](N)Cc1ccc(O)cc1)[C@@H](C)O)[C@@H](C)O)C(C)C)[C@@H](C)CC)[C@@H](C)CC)C(=O)N[C@@H](CCC(=O)O)C(=O)NCC(=O)NCC(=O)N1CCC[C@H]1C(=O)N[C@@H](CO)C(=O)N[C@@H](CO)C(=O)NCC(=O)N[C@@H](C)C(=O)N1CCC[C@H]1C(=O)N1CCC[C@H]1C(=O)N1CCC[C@H]1C(=O)N[C@@H](CO)C(N)=O [Example 168]	> 9950	93	93.3													
CC[C@H](C)[C@H](NC(=O)[C@H](CC(C)C)NC(=O)[C@](C)(Cc1ccc(O)cc1)NC(=O)[C@@H](CCC(=O)O)NC(=O)[C@@H](NC(=O)[C@H](Cc1ccccc1)NC(=O)[C@H](CCCN)NC(=O)C(C)(C)NC(=O)[C@H](CCC(N)=O)NC(=O)[C@H](C)NC(=O)[C@H](CCCCNC(=O)COCCOCCNC(=O)COCCOCCNC(=O)CC[C@H](NC(=O)CCCCCCCCCCCCC(=O)O)C(=O)O)NC(=O)[C@H](CCCN)NC(=O)[C@H](CC(=O)O)NC(=O)[C@H](CC(C)C)NC(=O)[C@](C)(CC(C)C)NC(=O)[C@@H](NC(=O)[C@H](CO)NC(=O)[C@H](Cc1ccncc1)NC(=O)[C@H](CC(=O)O)NC(=O)[C@H](CO)NC(=O)[C@@H](NC(=O)[C@](C)(Cc1ccccc1F)NC(=O)[C@@H](NC(=O)CNC(=O)[C@H](CCC(=O)O)NC(=O)C(C)(C)NC(=O)[C@@H](N)Cc1ccc(O)cc1)[C@@H](C)O)[C@@H](C)O)[C@@H](C)CC)[C@@H](C)CC)C(=O)N[C@@H](CCC(=O)O)C(=O)NCC(=O)NCC(=O)N[C@@H](CCCCNC(=O)COCCOCCNC(=O)COCCOCCNC(=O)CC[C@H](NC(=O)CCCCCCCCCCCCC(=O)O)C(=O)O)C(=O)N[C@@H](CO)C(=O)N[C@@H](CO)C(=O)NCC(=O)N[C@@H](C)C(=O)N1CCC[C@H]1C(=O)N1CCC[C@H]1C(=O)N1CCC[C@H]1C(=O)N[C@@H](CO)C(N)=O [Example 150]				> 9950	> 9950	0.35	81.3 ± 3.18	11	100 ± 3.8							
CC[C@H](C)[C@H](NC(=O)[C@H](CCCN)NC(=O)[C@H](CC(=O)O)NC(=O)[C@H](CC(C)C)NC(=O)[C@](C)(CC(C)C)NC(=O)[C@@H](NC(=O)C(C)(C)NC(=O)[C@H](Cc1ccc(O)cc1)NC(=O)[C@H](CC(=O)O)NC(=O)[C@H](CO)NC(=O)[C@@H](NC(=O)[C@](C)(Cc1ccccc1F)NC(=O)[C@@H](NC(=O)CNC(=O)[C@H](CCC(=O)O)NC(=O)C(C)(C)NC(=O)[C@@H](N)Cc1ccc(O)cc1)[C@@H](C)O)[C@@H](C)O)[C@@H](C)CC)C(=O)N[C@@H](C)C(=O)N[C@@H](CCC(N)=O)C(=O)NC(C)(C)C(=O)N[C@@H](CCC(=O)O)C(=O)N[C@@H](Cc1ccccc1)C(=O)N[C@H](C(=O)N[C@@H](CCCCNC(=O)COCCOCCNC(=O)COCCOCCNC(=O)CC[C@H](NC(=O)CCCCCCCCCCCCC(=O)O)C(=O)O)C(=O)N[C@@](C)(Cc1ccc(O)cc1)C(=O)N[C@@H](CC(C)C)C(=O)N[C@H](C(=O)N[C@@H](CCCCNC(=O)COCCOCCNC(=O)COCCOCCNC(=O)CC[C@H](NC(=O)CCCCCCCCCCCCC(=O)O)C(=O)O)C(=O)NCC(=O)NCC(=O)N1CCC[C@H]1C(=O)N[C@@H](CO)C(=O)N[C@@H](CO)C(=O)NCC(=O)N[C@@H](C)C(=O)N1CCC[C@H]1C(=O)N1CCC[C@H]1C(=O)N1CCC[C@H]1C(=O)N[C@@H](CO)C(N)=O)[C@@H](C)CC)[C@@H](C)CC [Example 233]				> 9950	> 9950	6.08	91.4	56.7	116	105	0.0269	111	0.604			
CC[C@H](C)[C@H](NC(=O)[C@H](CCCN)NC(=O)[C@H](CC(=O)O)NC(=O)[C@H](CC(C)C)NC(=O)[C@](C)(CC(C)C)NC(=O)[C@@H](NC(=O)[C@H](CO)NC(=O)[C@H](Cc1ccc(OC)cc1)NC(=O)[C@H](CC(=O)O)NC(=O)[C@H](CO)NC(=O)[C@@H](NC(=O)[C@](C)(Cc1ccccc1F)NC(=O)[C@@H](NC(=O)CNC(=O)[C@H](CCC(=O)O)NC(=O)C(C)(C)NC(=O)[C@@H](N)Cc1ccc(O)cc1)[C@@H](C)O)[C@@H](C)O)[C@@H](C)CC)C(=O)N[C@@H](C)C(=O)N[C@@H](CCC(N)=O)C(=O)NC(C)(C)C(=O)N[C@@H](CCC(=O)O)C(=O)N[C@@H](Cc1ccccc1)C(=O)N[C@H](C(=O)N[C@@H](CCCCNC(=O)COCCOCCNC(=O)COCCOCCNC(=O)CC[C@H](NC(=O)CCCCCCCCCCCCC(=O)O)C(=O)O)C(=O)N[C@@](C)(Cc1ccc(O)cc1)C(=O)N[C@@H](CC(C)C)C(=O)N[C@H](C(=O)N[C@@H](CCCCNC(=O)COCCOCCNC(=O)COCCOCCNC(=O)CC[C@H](NC(=O)CCCCCCCCCCCCC(=O)O)C(=O)O)C(=O)NCC(=O)NCC(=O)N1CCC[C@H]1C(=O)N[C@@H](CO)C(=O)N[C@@H](CO)C(=O)NCC(=O)N[C@@H](C)C(=O)N1CCC[C@H]1C(=O)N1CCC[C@H]1C(=O)N1CCC[C@H]1C(=O)N[C@@H](CO)C(N)=O)[C@@H](C)CC)[C@@H](C)CC [Example 262] (H-Y[Aib]EGT[αMePhe(2-F)]TSDY(Me)SI[αMeL]LD[Orn]IAQ[Aib]EFIK([AEEA-AEEA-γGlu-C14 diacid])[αMeY]LIK([AEEA-AEEA-γGlu-C14 diacid])GGPSSGAPPPS-NH2; N-terminus assumed)				> 9950			79.7		115					> 9950	89.8	105
